Key:
Type in all cases: in vivo
[1] = system: ivy-leaved morning glory (Ipomoea hederacea); experiment: Test G Post-Emergence Protocol; conditions: Ipomoea, post-emergence, 312 h; for pest or weed control at 15.625 g/ha: 15.625 g ai/ha, evaluated after 13 days (100=total damage to plant; 0=no damage to plant), read-out: Morningglory, Ivy-leaved damage rating; for pest or weed control at 62.5 g/ha: 62.5 g ai/ha, read-out: Morningglory, Ivy-leaved damage rating (100=total damage to plant; 0=no damage to plant); for pest or weed control at 62.5 g/ha / pest or weed control at 250 g/ha: evaluated after 13 days; for pest or weed control at 250 g/ha: 250 g ai/ha, read-out: damage to plant, Morningglory, Ivy-leaved (100=total damage to plant; 0=no damage to plant)
In short: (§1)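 Values are percent visual injury at 13 days after treatment (0 none, 100 total). Treatment was a post-emergence spray at 15.625, 62.5 or 250 g/ha on 8-day-old pot plants kept at 24/16 °C.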

corn (Zea mays) [2] = experiment: Test G Post-Emergence Protocol; conditions: Zea mays, post-emergence, 312 h; for plant injury at 15.625 g/ha: 15.625 g ai/ha, evaluated after 13 days (100=total damage to plant; 0=no damage to plant), read-out: Corn damage rating; for plant injury at 62.5 g/ha: 62.5 g ai/ha, read-out: Corn damage rating (100=total damage to plant; 0=no damage to plant); for plant injury at 62.5 g/ha / plant injury at 250 g/ha: evaluated after 13 days; for plant injury at 250 g/ha: 250 g ai/ha, read-out: damage to plant, Corn (100=total damage to plant; 0=no damage to plant)
In short: as §1

[3] = system: giant foxtail (Setaria faberi); experiment: Test G Post-Emergence Protocol; conditions: Setaria faberi, post-emergence, 312 h; for pest or weed control at 15.625 g/ha: 15.625 g ai/ha, evaluated after 13 days (100=total damage to plant; 0=no damage to plant), read-out: Foxtail, Giant damage rating; for pest or weed control at 62.5 g/ha: 62.5 g ai/ha, read-out: Foxtail, Giant damage rating (100=total damage to plant; 0=no damage to plant); for pest or weed control at 62.5 g/ha / pest or weed control at 250 g/ha: evaluated after 13 days; for pest or weed control at 250 g/ha: 250 g ai/ha, read-out: damage to plant, Foxtail, Giant (100=total damage to plant; 0=no damage to plant)
In short: as §1

[4] = system: redroot pigweed (Amaranthus retroflexus); experiment: Test G Post-Emergence Protocol; conditions: Amaranthus retroflexus, post-emergence, 312 h; for pest or weed control at 15.625 g/ha: 15.625 g ai/ha, evaluated after 13 days (100=total damage to plant; 0=no damage to plant), read-out: Pigweed, Redroot damage rating; for pest or weed control at 62.5 g/ha: 62.5 g ai/ha, read-out: Pigweed, Redroot damage rating (100=total damage to plant; 0=no damage to plant); for pest or weed control at 62.5 g/ha / pest or weed control at 250 g/ha: evaluated after 13 days; for pest or weed control at 250 g/ha: 250 g ai/ha, read-out: damage to plant, Pigweed, Redroot (100=total damage to plant; 0=no damage to plant)
In short: as §1

[5] = system: barnyardgrass (Echinochloa crus-galli); experiment: Test G Post-Emergence Protocol; conditions: Echinochloa crus-galli, post-emergence, 312 h; for pest or weed control at 15.625 g/ha: 15.625 g ai/ha, evaluated after 13 days (100=total damage to plant; 0=no damage to plant), read-out: Barnyardgrass damage rating; for pest or weed control at 62.5 g/ha: 62.5 g ai/ha, read-out: Barnyardgrass damage rating (100=total damage to plant; 0=no damage to plant); for pest or weed control at 62.5 g/ha / pest or weed control at 250 g/ha: evaluated after 13 days; for pest or weed control at 250 g/ha: 250 g ai/ha, read-out: damage to plant, Barnyardgrass (100=total damage to plant; 0=no damage to plant)
In short: as §1

[6] = system: velvetleaf (Abutilon theophrasti); experiment: Test G Post-Emergence Protocol; conditions: Abutilon theophrasti, post-emergence, 312 h; for pest or weed control at 15.625 g/ha: 15.625 g ai/ha, evaluated after 13 days (100=total damage to plant; 0=no damage to plant), read-out: Velvetleaf damage rating; for pest or weed control at 62.5 g/ha: 62.5 g ai/ha, read-out: Velvetleaf damage rating (100=total damage to plant; 0=no damage to plant); for pest or weed control at 62.5 g/ha / pest or weed control at 250 g/ha: evaluated after 13 days; for pest or weed control at 250 g/ha: 250 g ai/ha, read-out: damage to plant, Velvetleaf (100=total damage to plant; 0=no damage to plant)
In short: as §1

[7] = system: ivy-leaved morning glory (Ipomoea hederacea); experiment: Test G Pre-Emergence Protocol; conditions: Ipomoea, pre-emergence, 312 h, evaluated after 13 days; for pest or weed control at 15.625 g/ha: 15.625 g ai/ha, read-out: Morning-glory, Ivy-leaved damage rating (100=total damage to plant; 0=no damage to plant); for pest or weed control at 62.5 g/ha: 62.5 g ai/ha, 100=total damage to plant, 0=no damage to plant, read-out: plant damage rating, Morningglory, Ivy-leaved; for pest or weed control at 250 g/ha: 250 g ai/ha, read-out: Morningglory, Ivy-leaved damage rating (100=total damage to plant; 0=no damage to plant)
In short: (§2)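 Seeds were sown in standard soil and kept one day in a glasshouse (24/16° C day/night, 14 h light, 65% humidity), then sprayed with compound in acetone/water (50:50) containing 0.5% Tween 20 at 15.625, 62.5 or 250 g/ha. Damage was scored after 13 days (0 = none, 100 = total).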

corn (Zea mays) [8] = experiment: Test G Pre-Emergence Protocol; conditions: Zea mays, pre-emergence, 312 h, evaluated after 13 days; for plant injury at 15.625 g/ha: 15.625 g ai/ha; for plant injury at 15.625 g/ha / plant injury at 250 g/ha: read-out: Corn damage rating (100=total damage to plant; 0=no damage to plant); for plant injury at 62.5 g/ha: 62.5 g ai/ha, 100=total damage to plant, 0=no damage to plant, read-out: plant damage rating, Corn; for plant injury at 250 g/ha: 250 g ai/ha
In short: as §2

[9] = system: giant foxtail (Setaria faberi); experiment: Test G Pre-Emergence Protocol; conditions: Setaria faberi, pre-emergence, 312 h, evaluated after 13 days; for pest or weed control at 15.625 g/ha: 15.625 g ai/ha; for pest or weed control at 15.625 g/ha / pest or weed control at 250 g/ha: read-out: Foxtail, Giant damage rating (100=total damage to plant; 0=no damage to plant); for pest or weed control at 62.5 g/ha: 62.5 g ai/ha, 100=total damage to plant, 0=no damage to plant, read-out: plant damage rating, Foxtail, Giant; for pest or weed control at 250 g/ha: 250 g ai/ha
In short: as §2

[10] = system: redroot pigweed (Amaranthus retroflexus); experiment: Test G Pre-Emergence Protocol; conditions: Amaranthus retroflexus, pre-emergence, 312 h, evaluated after 13 days; for pest or weed control at 15.625 g/ha: 15.625 g ai/ha; for pest or weed control at 15.625 g/ha / pest or weed control at 250 g/ha: read-out: Pigweed, Redroot damage rating (100=total damage to plant; 0=no damage to plant); for pest or weed control at 62.5 g/ha: 62.5 g ai/ha, 100=total damage to plant, 0=no damage to plant, read-out: plant damage rating, Pigweed, Redroot; for pest or weed control at 250 g/ha: 250 g ai/ha
In short: as §2

[11] = system: barnyardgrass (Echinochloa crus-galli); experiment: Test G Pre-Emergence Protocol; conditions: Echinochloa crus-galli, pre-emergence, 312 h, evaluated after 13 days; for pest or weed control at 15.625 g/ha: 15.625 g ai/ha, read-out: Barnyard grass damage rating (100=total damage to plant; 0=no damage to plant); for pest or weed control at 62.5 g/ha: 62.5 g ai/ha, 100=total damage to plant, 0=no damage to plant, read-out: plant damage rating, Barnyardgrass; for pest or weed control at 250 g/ha: 250 g ai/ha, read-out: Barnyardgrass damage rating (100=total damage to plant; 0=no damage to plant)
In short: as §2

[12] = system: velvetleaf (Abutilon theophrasti); experiment: Test G Pre-Emergence Protocol; conditions: Abutilon theophrasti, pre-emergence, 312 h, evaluated after 13 days; for pest or weed control at 15.625 g/ha: 15.625 g ai/ha; for pest or weed control at 15.625 g/ha / pest or weed control at 250 g/ha: read-out: Velvetleaf damage rating (100=total damage to plant; 0=no damage to plant); for pest or weed control at 62.5 g/ha: 62.5 g ai/ha, 100=total damage to plant, 0=no damage to plant, read-out: plant damage rating, Velvetleaf; for pest or weed control at 250 g/ha: 250 g ai/ha
In short: as §2

SMILES | pest or weed control at 15.625 g/ha [1] | pest or weed control at 62.5 g/ha [1] | pest or weed control at 250 g/ha [1] | plant injury at 15.625 g/ha (corn (Zea mays) [2]) | plant injury at 62.5 g/ha (corn (Zea mays) [2]) | plant injury at 250 g/ha (corn (Zea mays) [2]) | pest or weed control at 15.625 g/ha [3] | pest or weed control at 62.5 g/ha [3] | pest or weed control at 250 g/ha [3] | pest or weed control at 15.625 g/ha [4] | pest or weed control at 62.5 g/ha [4] | pest or weed control at 250 g/ha [4] | pest or weed control at 15.625 g/ha [5] | pest or weed control at 62.5 g/ha [5] | pest or weed control at 250 g/ha [5] | pest or weed control at 15.625 g/ha [6] | pest or weed control at 62.5 g/ha [6] | pest or weed control at 250 g/ha [6] | pest or weed control at 15.625 g/ha [7] | pest or weed control at 62.5 g/ha [7] | also measured
CCOC(=O)c1cccc([C@H]2CN(C)C(=O)[C@@H]2C(=O)Nc2ccccc2F)c1 (racemic) [Compound 1438] | 0% | 0% | 0% | 0% | 0% | 0% | 0% | 0% | 0% | 0% | 0% | 10% | 0% | 0% | 0% | 0% | 0% | 0% | 0% | 0% | pest or weed control at 250 g/ha [7]: 0%; plant injury at 15.625 g/ha (corn (Zea mays) [8]): 0%; plant injury at 62.5 g/ha (corn (Zea mays) [8]): 0%; plant injury at 250 g/ha (corn (Zea mays) [8]): 0%; pest or weed control at 15.625 g/ha [9]: 0%; pest or weed control at 62.5 g/ha [9]: 0%; pest or weed control at 250 g/ha [9]: 20%; pest or weed control at 15.625 g/ha [10]: 0%; pest or weed control at 62.5 g/ha [10]: 0%; pest or weed control at 250 g/ha [10]: 0%; pest or weed control at 15.625 g/ha [11]: 0%; pest or weed control at 62.5 g/ha [11]: 0%; pest or weed control at 250 g/ha [11]: 0%; pest or weed control at 15.625 g/ha [12]: 0%; pest or weed control at 62.5 g/ha [12]: 0%; pest or weed control at 250 g/ha [12]: 0%
Cc1cc(Cl)ccc1NC(=O)[C@H]1C(=O)N(C)C[C@@H]1c1ccc(C(F)(F)F)cc1 (racemic) [Compound 1442] | 0% | 0% | 0% | 0% | 0% | 0% | 0% | 0% | 0% | 0% | 0% | 0% | 0% | 0% | 0% | 0% | 0% | 0% | 0% | 0% | pest or weed control at 250 g/ha [7]: 0%; plant injury at 15.625 g/ha (corn (Zea mays) [8]): 0%; plant injury at 62.5 g/ha (corn (Zea mays) [8]): 0%; plant injury at 250 g/ha (corn (Zea mays) [8]): 0%; pest or weed control at 15.625 g/ha [9]: 0%; pest or weed control at 62.5 g/ha [9]: 0%; pest or weed control at 250 g/ha [9]: 30%; pest or weed control at 15.625 g/ha [10]: 0%; pest or weed control at 62.5 g/ha [10]: 0%; pest or weed control at 250 g/ha [10]: 10%; pest or weed control at 15.625 g/ha [11]: 0%; pest or weed control at 62.5 g/ha [11]: 0%; pest or weed control at 250 g/ha [11]: 0%; pest or weed control at 15.625 g/ha [12]: 0%; pest or weed control at 62.5 g/ha [12]: 0%; pest or weed control at 250 g/ha [12]: 10%
C=C(C)c1ccccc1NC(=O)[C@H]1C(=O)N(C)C[C@@H]1c1ccc(C(F)(F)F)cc1 (racemic) [Compound 1449] | 0% | 0% | 10% | 0% | 0% | 10% | 0% | 20% | 60% | 0% | 0% | 30% | 0% | 10% | 30% | 0% | 0% | 0% | 0% | 0% | pest or weed control at 250 g/ha [7]: 0%; plant injury at 15.625 g/ha (corn (Zea mays) [8]): 0%; plant injury at 62.5 g/ha (corn (Zea mays) [8]): 0%; plant injury at 250 g/ha (corn (Zea mays) [8]): 0%; pest or weed control at 15.625 g/ha [9]: 10%; pest or weed control at 62.5 g/ha [9]: 70%; pest or weed control at 250 g/ha [9]: 80%; pest or weed control at 15.625 g/ha [10]: 0%; pest or weed control at 62.5 g/ha [10]: 0%; pest or weed control at 250 g/ha [10]: 0%; pest or weed control at 15.625 g/ha [11]: 0%; pest or weed control at 62.5 g/ha [11]: 0%; pest or weed control at 250 g/ha [11]: 30%; pest or weed control at 15.625 g/ha [12]: 0%; pest or weed control at 62.5 g/ha [12]: 0%; pest or weed control at 250 g/ha [12]: 0%
